The nature of data set [1]: Cyto-toxicity assay (MTT) in MT2 cells without virus. Format: cell-based. The following applies: human. How it is done:
For cyto-toxicity assay the same amount of MT2 cells as in antiviral assay without virus was added to the 96 well plates. The cyto-toxicity was measured using MTT reagent in parallel with p24 estimation. The percent viability is calculated in comparison with vehicle control.

Data set [2] in a line: Single dose oral pharmacokinetic study in mice. Format: in vivo. The following applies: mouse, plasma; for AUC(0-t): read-out: AUC 0-t; for half-life: read-out: t½ (converted). Summed up:
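Mice or rats dosed orally at 30 mg/kg in a suitable vehicle (10 ml/kg). Retro-orbital blood on K3 EDTA at defined time points under light ether anaesthesia; plasma analysed by LC-MS-MS.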

Data set [3] relates to HIV-1 strain 92HT599. The experiment in a line: Antiviral activity: p24 estimation in MT2 cells infected with HIV-1 strain 92HT599. The class given is cell-based. Conditions: Human immunodeficiency virus 1, MT2 cells, HIV-1 92HT599, ~96 hours, p24; for inhibition at 0.1 µM: 100 nM, read-out: Antiviral activity % inhibition 100 nM; for inhibition at 1 µM: 1000 nM, read-out: Antiviral activity % inhibition 1000 nM. In outline: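 Infection of MT2 cells used 10 TCID50/30000 cells, with compound present at ≤1% DMSO for ~96 h. p24 in well aliquots was quantified by kit. Percent inhibition is relative to vehicle controls.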

The nature of data set [4]: Single dose oral pharmacokinetic study in rat. Format: in vivo. Conditions: plasma, Rat oral PK @30 mg/kg (Table 3); for half-life: read-out: t½ (converted). Here is the method:
The test item was administered through oral route to animals (rat/mice) at 30 mg/kg dose in a suitable vehicle at 10 ml/kg dose volume. Blood samples (˜50 uL at each time point) were collected from retro-orbital plexus using K3 EDTA as anticoagulant in eppendorf tubes at defined time intervals under light ether anesthesia. The samples were centrifuged at 3500×g to separate plasma and stored at −80° C. until analysis.
Sample analysis: Test samples were analyzed using LC-MS-MS after developing fit-for-purpose method for each of test compound.

Setting [5] is: Mice oral PK @30 mg/kg (Table 4).
Where [6] appears, read: Mice oral PK @30 mg/kg (Table 5).

Results on four compounds are retold here after patent US20150119373A1, “NOVEL BETULINIC ACID DERIVATIVES AS HIV INHIBITORS” (HETERO RESEARCH FOUNDATION, priority 2012, published 2015).

On to `CC(C)(CC(=O)O[C@H]1CC[C@]2(C)[C@H]3CC[C@@H]4[C@H]5[C@H](C6(C)CC6)CC[C@]5(C(=O)N[C@@H]5C[C@H](C(=O)N6CCCCC6)C5(C)C)CC[C@@]4(C)[C@]3(C)CC[C@H]2C1(C)C)C(=O)O` [Example 4, 4-((1R,3aS,5aR,5bR,7aR,9S,11aR,11bR,13aR,13bR)-3a-((1R,3S)-2,2-dimethyl-3-(piperidine-1-carbonyl)cyclobutylcarbamoyl)-5a,5b,8,8,11a-pentamethyl-1-(1-methylcyclopropyl)icosahydro-1H-cyclopenta[a]chrysen-9-yloxy)-2,2-dimethyl-4-oxobutanoicacid], for which, in data set [1], the viability (usually a per cent measure of how many cells are alive, often set against a control) at 100 nM was found to be 82% and the viability at 1000 nM was determined as 86%. In addition, in data set [2] (setting [5]), the AUC(0-inf) (in general, the area under the concentration-time curve extrapolated to infinity) came to 155 µg·h/mL; the highest level (Cmax) was 9.78 µg/mL; the AUC(0-t) (usually the area under the concentration-time curve up to a stated or last time point) was 138 µg·h/mL; the half-life is 14.5 h. Moreover, in data set [3], the inhibition (usually the share of the control response that was lost under treatment) at 0.1 µM is 98% and the inhibition at 1 µM is 98%. Moreover, in data set [4], the AUC(0-inf) was 22.6 µg·h/mL; the AUC(0-t) stood at 22.3 µg·h/mL; the Cmax (as a rule, the peak of the concentration-time curve) came out at 5.92 µg/mL; the half-life was 4.44 h.

In data set [1], `C=C(C)[C@@H]1CC[C@]2(C(=O)O)CC[C@]3(C)[C@H](CC[C@@H]4[C@@]5(C)CC[C@H](OC(=O)[C@H]6[C@@H](CC(=O)O)C6(C)C)C(C)(C)[C@@H]5CC[C@]43C)[C@@H]12` [Compound 1, (1R,3aS,5aR,5bR,7aR,9S,11aR,11bR,13aR,13bR)-9-((1S,3R)-3-(carboxymethyl)-2,2-dimethylcyclopropanecarbonyloxy)-5a,5b,8,8,11a-pentamethyl-1-(prop-1-en-2-yl)icosahydro-1H-cyclopenta[a]chrysene-3a-carboxylic acid] yielded a viability at 100 nM of 96% and a viability at 1000 nM of 92%. Besides, in data set [2] (setting [5]), the AUC(0-inf) turned out to be 36.7 µg·h/mL, the highest level (Cmax) was 8.79 µg/mL, the AUC(0-t) was determined as 35.9 µg·h/mL and the half-life was 6.23 h. In addition, in data set [3], the inhibition at 0.1 µM was 95% and the inhibition at 1 µM was 100%. Also, in data set [4], the AUC(0-inf) was found to be 3.23 µg·h/mL, the AUC(0-t) came to 3.12 µg·h/mL, the Cmax was found to be 1.22 µg/mL and the half-life is 1.53 h.

Consider `C=C(C)[C@@H]1CC[C@]2(C(=O)N[C@@H]3C[C@H](c4nnc(C)o4)C3(C)C)CC[C@]3(C)[C@H](CC[C@@H]4[C@@]5(C)CC[C@H](OC(=O)CC(C)(C)C(=O)O)C(C)(C)[C@@H]5CC[C@]43C)[C@@H]12` [Example 11, 4-((1R,3aS,5aR,5bR,7aR,9S,11aR,11bR,13aR,13bR)-3a-((1R,3S)-2,2-dimethyl-3-(5-methyl-1,3,4-oxadiazol-2-yl)cyclobutylcarbamoyl)-5a,5b,8,8,11a-pentamethyl-1-(prop-1-en-2-yl)icosahydro-1H-cyclopenta[a]chrysen-9-yloxy)-2,2-dimethyl-4-oxo butanoicacid], for which, in data set [1], the viability at 100 nM was 96% and the viability at 1000 nM came to 98%. Moreover, in data set [2] (setting [5]), the AUC(0-inf) amounted to 138 µg·h/mL, the Cmax is 11.3 µg/mL, the AUC(0-t) came out at 115 µg·h/mL and the half-life is 3.66 h. In data set [3], the inhibition at 0.1 µM was 100% and the inhibition at 1 µM was 100%. In data set [4], the AUC(0-inf) worked out at 8.16 µg·h/mL, the AUC(0-t) is 8.05 µg·h/mL, the peak level (Cmax) was 1.97 µg/mL and the half-life was 3.66 h.

`CC(C)(CC(=O)O[C@H]1CC[C@]2(C)[C@H]3CC[C@@H]4[C@H]5[C@H]([C@@](C)(O)CO)CC[C@]5(C(=O)N[C@@H]5C[C@H](C(=O)N6CCCCC6)C5(C)C)CC[C@@]4(C)[C@]3(C)CC[C@H]2C1(C)C)C(=O)O` [Example 15, 4-((1R,3aS,5aR,5bR,7aR,9S,11aR,11bR,13aR,13bS)-1-(1,2-dihydroxypropan-2-yl)-3a-((1R,3S)-2,2-dimethyl-3-(piperidine-1-carbonyl)cyclobutylcarbamoyl)-5a,5b,8,8,11a-pentamethylicosahydro-1H-cyclopenta[a]chrysen-9-yloxy)-2,2-dimethyl-4-oxobutanoicacid]: in data set [1], the viability at 100 nM is 95% and the viability at 1000 nM stood at 95%. Moreover, in data set [2] (setting [6]), the Cmax is 3.78 µg/mL, the Tmax (usually the time at which the peak concentration occurs) worked out at 0.63 h and the AUC(0-t) is 31.4 µg·h/mL. Moreover, in data set [3], the inhibition at 0.1 µM is 93% and the inhibition at 1 µM was 97%.
